Tested on: blood glucose in diabetic rats
Assay: diabetic rat assay
Type: in vivo
Conditions: Figure 5 panels C and D

Row | Substance | activity in lowering blood glucose in diabetic rats (in words)
1 | WT insulin (biosynthetic): wild type (wt) biosynthetic insulin used as positive control | fully active
2 | [Asp^B10, Lys^B28, Pro^B29]-insulin [DKP insulin (biosynthetic)] | fully active

Source: publication PMC3625376 (Journal of the American Chemical Society, 2013)
